# Results published in patent EP1561465A2, “Methods of use of fluoroquinolone compounds against bacteria” (LG Life Sciences, Ltd., priority 1999, dated 2001).
# Where two headings read alike, the source gives them in different places.
# Columns and labels:
# Streptococcus pneumoniae [1] = assay: MIC by agar dilution (NCCLS), 411 isolates Buenos Aires 1998-99; format: cell-based; details: S. pneumoniae
# Streptococcus pneumoniae [2] = assay: MIC by NCCLS reference broth microdilution, 450 respiratory tract pathogens; format: cell-based; details: for MIC50 / MIC90 / MIC: Streptococcus pneumoniae
# Haemophilus influenzae = assay: as above; format: cell-based; details: Haemophilus influenzae; for MIC90: read-out: MIC90
# Klebsiella pneumoniae = assay: as above; format: cell-based; details: Klebsiella pneumoniae
# Streptococcus pyogenes = assay: as above; format: cell-based; details: Streptococcus pyogenes
# Staphylococcus aureus = assay: as above; format: cell-based
# Moraxella catarrhalis = assay: as above; format: cell-based
# Enterococcus faecalis = assay: MIC by agar macrodilution (NCCLS), 373 Gram positive isolates, Athens 1998; format: cell-based; details: for MIC50: read-out: MIC50
# Campylobacter jejuni = assay: MIC by agar dilution (NCCLS M7-A4), 288 enteropathogenic isolates, gemifloxacin and 15 other antimicrobials; details: for MIC: Campylobacter jejuni
# Salmonella spp. = assay: as above; format: cell-based; details: Salmonella spp.
# [3] = Streptococcus pneumoniae (n = 100)
# [4] = erythromycin resistant M phenotype (n = 16)
# [5] = erythromycin resistant MLSB phenotype (n = 16)
# [6] = penicillin intermediate (n = 16)
# [7] = penicillin susceptible (n = 20)
# [8] = Haemophilus influenzae (n = 100)
# [9] = extended spectrum β-lactamase positive (n = 20)
# [10] = Streptococcus pyogenes (n = 100)
# [11] = erythromycin resistant C phenotype [MLSB] (n = 20)
# [12] = erythromycin resistant I phenotype [MLSB] (n = 20)
# [13] = erythromycin resistant M phenotype (n = 20)
# [14] = β-lactamase positive and erythromycin resistant (n = 10)
# [15] = number of isolates at MIC […], n = 81
# [16] = number of isolates with MIC […], 14 isolates
compound,measurement,setting,value
"CO/N=C(\C(=O)N[C@@H]1C(=O)N2C(C(=O)O)=C(COC(N)=O)CS[C@H]12)c1ccco1 [Cefuroxime, cefuroxime]",MIC90,"Streptococcus pneumoniae [1]; Streptococcus pneumoniae, Penicillin intermediate (n = 17), read-out: MIC90",4 µg/mL
same,MIC90,"Streptococcus pneumoniae [1]; Streptococcus pneumoniae, Penicillin resistant (n = 4), read-out: MIC90",4 µg/mL
same,MIC90,"Streptococcus pneumoniae [1]; Streptococcus pneumoniae, Penicillin susceptible (n = 69), read-out: MIC90",0.03 µg/mL
same,MIC Range,Streptococcus pneumoniae [2]; [3],≤0.0075 to 8 µg/mL
same,MIC50,Streptococcus pneumoniae [2]; [3],0.03 µg/mL
same,MIC90,Streptococcus pneumoniae [2]; [3],2 µg/mL
same,MIC,Streptococcus pneumoniae [2]; [4],0.0075 to 0.12 µg/mL
same,MIC50,Streptococcus pneumoniae [2]; [4],0.015 µg/mL
same,MIC90,Streptococcus pneumoniae [2]; [4],0.12 µg/mL
same,MIC,Streptococcus pneumoniae [2]; [5],0.015 to 0.5 µg/mL
same,MIC50,Streptococcus pneumoniae [2]; [5],0.015 µg/mL
same,MIC90,Streptococcus pneumoniae [2]; [5],0.03 µg/mL
same,MIC,Streptococcus pneumoniae [2]; multi-drug resistant (n = 16),0.015 to 0.25 µg/mL
same,MIC50,Streptococcus pneumoniae [2]; multi-drug resistant (n = 16),0.03 µg/mL
same,MIC90,Streptococcus pneumoniae [2]; multi-drug resistant (n = 16),0.03 µg/mL
same,MIC,Streptococcus pneumoniae [2]; [6],0.12 to 8 µg/mL
same,MIC50,Streptococcus pneumoniae [2]; [6],2 µg/mL
same,MIC90,Streptococcus pneumoniae [2]; [6],2 µg/mL
same,MIC,Streptococcus pneumoniae [2]; penicillin resistant (n = 18),2 to 8 µg/mL
same,MIC50,Streptococcus pneumoniae [2]; penicillin resistant (n = 18),2 µg/mL
same,MIC90,Streptococcus pneumoniae [2]; penicillin resistant (n = 18),8 µg/mL
same,MIC,Streptococcus pneumoniae [2]; [7],0.0075 to 0.015 µg/mL
same,MIC50,Streptococcus pneumoniae [2]; [7],0.015 µg/mL
same,MIC90,Streptococcus pneumoniae [2]; [7],0.015 µg/mL
same,MIC,Haemophilus influenzae; [8],0.12 to 4 µg/mL
same,MIC50,Haemophilus influenzae; [8],0.5 µg/mL
same,MIC90,Haemophilus influenzae; [8],1 µg/mL
same,MIC,Haemophilus influenzae; β-lactamase negative (n = 80),0.25 to 1 µg/mL
same,MIC50,Haemophilus influenzae; β-lactamase negative (n = 80),0.5 µg/mL
same,MIC90,Haemophilus influenzae; β-lactamase negative (n = 80),1 µg/mL
same,MIC,Haemophilus influenzae; β-lactamase positive (n = 20),0.12 to 4 µg/mL
same,MIC50,Haemophilus influenzae; β-lactamase positive (n = 20),0.5 µg/mL
same,MIC90,Haemophilus influenzae; β-lactamase positive (n = 20),1 µg/mL
same,MIC50,Klebsiella pneumoniae; Klebsiella pneumoniae (n = 50),2 µg/mL
same,MIC90,Klebsiella pneumoniae; Klebsiella pneumoniae (n = 50),128 µg/mL
same,MIC50,Klebsiella pneumoniae; [9],128 µg/mL
same,MIC90,Klebsiella pneumoniae; [9],> 128 µg/mL
same,MIC,Streptococcus pyogenes; [10],0.00375 to 0.015 µg/mL
same,MIC50,Streptococcus pyogenes; [10],0.0075 µg/mL
same,MIC90,Streptococcus pyogenes; [10],0.015 µg/mL
same,MIC,Streptococcus pyogenes; [11],0.00375 to 0.015 µg/mL
same,MIC50,Streptococcus pyogenes; [11],≤ 0.00375 µg/mL
same,MIC90,Streptococcus pyogenes; [11],0.015 µg/mL
same,MIC,Streptococcus pyogenes; [12],0.00375 to 0.01 µg/mL
same,MIC50,Streptococcus pyogenes; [12],≤ 0.00375 µg/mL
same,MIC90,Streptococcus pyogenes; [12],0.015 µg/mL
same,MIC,Streptococcus pyogenes; [13],0.00375 to 0.015 µg/mL
same,MIC50,Streptococcus pyogenes; [13],≤ 0.00375 µg/mL
same,MIC90,Streptococcus pyogenes; [13],0.015 µg/mL
same,MIC,Streptococcus pyogenes; fully susceptible (n = 20),0.0075 to 0.015 µg/mL
same,MIC50,Streptococcus pyogenes; fully susceptible (n = 20),0.0075 µg/mL
same,MIC90,Streptococcus pyogenes; fully susceptible (n = 20),0.015 µg/mL
same,MIC,Streptococcus pyogenes; multi-drug resistant (n = 20),0.0075 to 0.015 µg/mL
same,MIC90,Streptococcus pyogenes; multi-drug resistant (n = 20),0.015 µg/mL
same,MIC,Staphylococcus aureus; Staphylococcus aureus (n = 50),0.00375 to 0.25 µg/mL
same,MIC50,Staphylococcus aureus; Staphylococcus aureus (n = 50),0.25 µg/mL
same,MIC90,Staphylococcus aureus; Staphylococcus aureus (n = 50),0.25 µg/mL
same,MIC,Staphylococcus aureus; β-lactamase negative (n = 20),0.0075 to 0.25 µg/mL
same,MIC50,Staphylococcus aureus; β-lactamase negative (n = 20),0.25 µg/mL
same,MIC90,Staphylococcus aureus; β-lactamase negative (n = 20),0.25 µg/mL
same,MIC,Staphylococcus aureus; β-lactamase positive (n = 20),0.06 to 0.25 µg/mL
same,MIC50,Staphylococcus aureus; β-lactamase positive (n = 20),0.25 µg/mL
same,MIC90,Staphylococcus aureus; β-lactamase positive (n = 20),0.25 µg/mL
same,MIC,Staphylococcus aureus; [14],0.06 to 0.25 µg/mL
same,MIC50,Staphylococcus aureus; [14],0.12 µg/mL
same,MIC90,Staphylococcus aureus; [14],0.25 µg/mL
same,MIC,Moraxella catarrhalis; Moraxella catarrhalis (n = 50),0.00375 to 1 µg/mL
same,MIC50,Moraxella catarrhalis; Moraxella catarrhalis (n = 50),0.25 µg/mL
same,MIC90,Moraxella catarrhalis; Moraxella catarrhalis (n = 50),1 µg/mL
same,MIC,Moraxella catarrhalis; β-lactamase negative (n = 13),0.00375 to 1 µg/mL
same,MIC50,Moraxella catarrhalis; β-lactamase negative (n = 13),0.12 µg/mL
same,MIC90,Moraxella catarrhalis; β-lactamase negative (n = 13),0.5 µg/mL
same,MIC,Moraxella catarrhalis; β-lactamase positive (n = 37),0.00375 to 1 µg/mL
same,MIC50,Moraxella catarrhalis; β-lactamase positive (n = 37),0.25 µg/mL
same,MIC90,Moraxella catarrhalis; β-lactamase positive (n = 37),1 µg/mL
CC[C@H]1OC(=O)[C@H](C)[C@@H](O[C@H]2C[C@@](C)(OC)[C@@H](O)[C@H](C)O2)[C@H](C)[C@@H](O[C@@H]2O[C@H](C)C[C@H](N(C)C)[C@H]2O)[C@](C)(O)C[C@@H](C)C(=O)[C@H](C)[C@@H](O)[C@]1(C)O [erythromycin],MIC50,"Enterococcus faecalis; Enterococcus faecalis, continuation of the preceding table (title not shown), 14 isolates",≥ 32 µg/mL
same,MIC50,"Enterococcus faecalis; Enterococcus faecalis, n = 81 isolates",8 µg/mL
same,MIC90,"Enterococcus faecalis; Enterococcus faecalis, n = 81 isolates, read-out: MIC90",≥ 32 µg/mL
same,MIC90,"Enterococcus faecalis; continuation of the preceding table (title not shown), 14 isolates",≥32 µg/mL
same,MIC distribution (µg/ml) 0.03,"Enterococcus faecalis; number of isolates at MIC 0.03 µg/ml, n = 81",0
same,MIC distribution (µg/ml) 0.06,"Enterococcus faecalis; number of isolates at MIC 0.06 µg/ml, n = 81",0
same,MIC distribution (µg/ml) 0.5,"Enterococcus faecalis; number of isolates at MIC 0.5 µg/ml, n = 81",1
same,MIC distribution (µg/ml) 1,"Enterococcus faecalis; number of isolates at MIC 1 µg/ml, n = 81",2
same,MIC distribution (µg/ml) 2,"Enterococcus faecalis; number of isolates at MIC 2 µg/ml, n = 81",12
same,MIC distribution (µg/ml) 4,"Enterococcus faecalis; number of isolates at MIC 4 µg/ml, n = 81",16
same,MIC distribution (µg/ml) 8,"Enterococcus faecalis; number of isolates at MIC 8 µg/ml, n = 81",4
same,MIC distribution (µg/ml) 16,"Enterococcus faecalis; number of isolates at MIC 16 µg/ml, n = 81",1
same,MIC distribution (µg/ml) 0.125,Enterococcus faecalis; [15],1
same,MIC distribution (µg/ml) 0.25,Enterococcus faecalis; [15],1
same,MIC distribution (µg/ml) ≤0.015,"Enterococcus faecalis; number of isolates at MIC ≤[…], n = 81",0
same,MIC distribution (µg/ml) ≥32,"Enterococcus faecalis; number of isolates at MIC ≥32 µg/ml, n = 81",39
same,MIC distribution (µg/ml) 0.03,"Enterococcus faecalis; number of isolates with MIC 0.03 µg/ml, 14 isolates",0
same,MIC distribution (µg/ml) 0.06,"Enterococcus faecalis; number of isolates with MIC 0.06 µg/ml, 14 isolates",0
same,MIC distribution (µg/ml) 0.5,"Enterococcus faecalis; number of isolates with MIC 0.5 µg/ml, 14 isolates",0
same,MIC distribution (µg/ml) 1,"Enterococcus faecalis; number of isolates with MIC 1 µg/ml, 14 isolates",0
same,MIC distribution (µg/ml) 2,"Enterococcus faecalis; number of isolates with MIC 2 µg/ml, 14 isolates",2
same,MIC distribution (µg/ml) 4,"Enterococcus faecalis; number of isolates with MIC 4 µg/ml, 14 isolates",2
same,MIC distribution (µg/ml) 8,"Enterococcus faecalis; number of isolates with MIC 8 µg/ml, 14 isolates",1
same,MIC distribution (µg/ml) 16,"Enterococcus faecalis; number of isolates with MIC […] µg/ml, 14 isolates",0
same,MIC distribution (µg/ml) 0.125,Enterococcus faecalis; [16],0
same,MIC distribution (µg/ml) 0.25,Enterococcus faecalis; [16],0
same,MIC distribution (µg/ml) ≤0.015,"Enterococcus faecalis; number of isolates with MIC ≤[…], 14 isolates",0
same,MIC distribution (µg/ml) ≥32,"Enterococcus faecalis; number of isolates with MIC ≥[…] µg/ml, 14 isolates",9
same,isolates inhibited by a concentration ≤0.5 mg/l,Campylobacter jejuni; C. jejuni,77%
same,concentration inhibiting all the other isolates,Campylobacter jejuni; C. jejuni isolates other than the highly resistant strain,≤ 4 mg/L
same,MIC,Campylobacter jejuni,128 mg/L
same,MIC,Campylobacter jejuni; read-out: MIC (mg/L) 50%,0.5 mg/L
same,MIC,Campylobacter jejuni; read-out: MIC (mg/L) 90%,1 mg/L
co-trimoxazole,Rates of non-susceptible microorganisms,Salmonella spp.,4%
same,isolates being resistant,Salmonella spp.,4%
same,MIC90,Streptococcus pneumoniae [1]; Penicillin intermediate (n = 17),8 µg/mL
same,MIC90,Streptococcus pneumoniae [1]; Penicillin resistant (n = 4),>16 µg/mL
same,MIC90,Streptococcus pneumoniae [1]; Penicillin susceptible (n = 69),8 µg/mL
same,isolates being resistant,Campylobacter jejuni; C. jejuni,4%
